According to patent US10934297B2, “5-heteroaryl substituted indazole-3-carboxamides and preparation and use thereof” (Samumed, LLC, priority 2018, dated 2021):
pEC50, pIC50: −log10 of the molar value.

Assays:
[1] = system: SW480 colon carcinoma cells; test: Cell viability assay (CellTiter-Glo) in SW480 colon carcinoma cells; assay type: cell-based, human; conditions: Homo sapiens, 96 h, four days
Procedure, shortened: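 Viability was taken from CellTiter-Glo ATP luminescence, read about 12 min after reagent addition, relative to DMSO controls. The cells were Sp5-Luc reporter SW480 colon carcinoma cells, 2,000/well in 1% FBS DMEM, exposed to compound for four days at 37 °C.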

[2] = system: primary human fibroblasts derived from IPF patients (LL29 cells); test: Inhibition of the fibrotic process: αSMA staining in TGF-β1 treated LL29 fibroblasts; assay type: cell-based; conditions: Homo sapiens, Fibroblast, 96 h; LL29 cells, TGF-β1 20 ng/mL, 4 days, % αSMA positive cells
Procedure, shortened: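 LL29 fibroblasts from IPF patients, in F12 medium with 1% FBS, treated with TGF-β1 plus compound; TGF-β1 with DMSO as positive control, DMSO alone as negative control. After 4 days' incubation, SYTOX green nucleic acid stain added at 1 μM final, 30 min at room temperature.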

DYRK1A kinase = DYRK1A kinase (Homo sapiens (Human), UniProt Q13627); test: DYRK1A kinase assay (Ser/Thr 18 peptide Z-lyte FRET); assay type: biochemical; conditions: read-out: EC50 (method: IC50)
Procedure, shortened: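 Kinase reactions with compound ran 1 h at room temperature in duplicate, and development reagent was then added for another hour.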

[3] = system: Wnt activity (Sp5-Luc reporter in SW480 cells); test: Screening assay for Wnt activity: Sp5-Luc reporter gene assay in SW480 colon carcinoma cells; assay type: cell-based, human; conditions: Homo sapiens, 36 to 48 hours
Procedure, shortened: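 EC50 values come from a variable-slope four-parameter fit of luminescence normalized to DMSO-only wells. The read-out follows 36–48 h incubation at 37 °C, 5% CO2, in DMEM containing 1% fetal bovine serum. Cells are hygromycin-selected SW480 stably expressing firefly luciferase under a Wnt-responsive Sp5 promoter (eight TCF/LEF sites).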

IL-6 = IL-6 inhibition in LPS-stimulated human peripheral blood mononuclear cells (HTRF); assay type: cell-based; conditions: Homo sapiens, PBMC; for pEC50: huPBMCs, LPS 50 ng/mL, 22 hours, IL-6 HTRF; for inhibition at 10 µM: read-out: percent inhibition at 10 μM
Protocol: Fresh Normal PB MNC (Catalog #PB001, AllCells, Alameda, Calif.) were shipped overnight at 4° C. and resuspended in Roswell Park Memorial Institute (RPMI) 1640 Medium, with GlutaMAX Supplement (Catalog #61870127, ThermoFisher Scientific, Waltham, Mass.) supplemented with 1% Penicillin-Streptomycin (Catalog #15140163. ThermoFisher Scientific, Waltham, Mass.) and 1% fetal bovine serum (FBS) (Catalog #16140089, ThermoFisher Scientific, Waltham, Mass.) assay media. Fresh normal human peripheral blood mononuclear cells (huPBMCs) were resuspended in 1% FBS-RPMI assay media with 1% Penicillin-Streptomycin 1% to a cell concentration of 1×10e6 cells/mL. […] 50 ng/mL of Lipopolysaccharides from Escherichia coli 0111:B4 (Catalog #L5293-2ML, Sigma-Aldrich, St. Louis, Mo.) was added after 2 hours and cells were incubated for another 22 hours at 37° C.-5% CO2. After 22 hour incubation, a mixture of anti-IL6 XL665 and anti-IL-6 Cryptate diluted in reconstitution buffer (Catalog #62IL6PEC, Cisbio Inc., Bedford, Mass.) was added to each well. Following incubation for 3 hours at room temperature, Homogeneous Time-Resolved Fluorescence (HTRF) was measured using the Envision (Perkin Elmer, Shelton, Conn.) at 665 nm and […]. The ratio of fluorescence at 665 nm to 620 nm was used as a readout for IL-6 quantification. All samples were processed in duplicate. Readings were normalized to DMSO treated cells and normalized activities were utilized for EC50 calculations.

GSK3β kinase = GSK3β kinase (Homo sapiens (Human), UniProt P49841); test: GSK3β kinase assay (Ser/Thr 09 peptide Z-lyte FRET); assay type: biochemical; conditions: read-out: EC50 (method: IC50)
Sequence of GSK3β kinase (P49841 whole entry): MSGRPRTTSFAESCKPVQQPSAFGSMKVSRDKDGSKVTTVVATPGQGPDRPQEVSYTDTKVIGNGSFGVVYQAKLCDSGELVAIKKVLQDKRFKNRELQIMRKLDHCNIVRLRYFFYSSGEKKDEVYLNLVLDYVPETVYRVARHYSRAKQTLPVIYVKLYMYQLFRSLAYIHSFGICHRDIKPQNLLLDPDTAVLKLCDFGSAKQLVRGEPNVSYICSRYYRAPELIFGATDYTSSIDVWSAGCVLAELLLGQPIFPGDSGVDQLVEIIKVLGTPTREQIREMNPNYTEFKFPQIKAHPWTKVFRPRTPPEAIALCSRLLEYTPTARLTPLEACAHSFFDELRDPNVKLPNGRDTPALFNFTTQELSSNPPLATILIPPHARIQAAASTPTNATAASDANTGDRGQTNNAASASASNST
Procedure, shortened: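 Non-radioactive Z-lyte FRET read-out, kinase activity expressed as coumarin/fluorescein emission ratio. Compounds incubated with the reaction mixture one hour at room temperature in duplicate, then development buffer added for another hour. IC50 from non-linear regression of dose-response curves.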

| SMILES | pEC50 [1] | pEC50 [2] | pIC50 (DYRK1A kinase) | pEC50 [3] | pEC50 (IL-6) | pIC50 (GSK3β kinase) | inhibition at 10 µM (IL-6) |
| --- | --- | --- | --- | --- | --- | --- | --- |
| Cn1cc(-c2ccc3[nH]nc(C(=O)NC4CCN(CC(C)(C)F)CC4)c3c2)cn1 [Compound 37, N-(1-(2-Fluoro-2-methylpropyl)piperidin-4-yl)-5-(1-methyl-1H-pyrazol-4-yl)-1H-indazole-3-carboxamide] | 6.07 | 6.93 | 8.30 | 6.13 | 6.26 | 7.85 | – |
| Cc1c(-c2cc3c(C(=O)Nc4ccc(OC5CCN(C)CC5)cc4)n[nH]c3cc2F)cnn1C [Compound 81, 5-(1,5-Dimethyl-1H-pyrazol-4-yl)-6-fluoro-N-(4-((1-methylpiperidin-4-yl)oxy)phenyl)-1H-indazole-3-carboxamide] | 6.86 | 6.47 | 9.00 | 6.94 | 5.97 | 7.46 | – |
| Cn1cc(-c2cc3c(C(=O)Nc4ccc(CN5CCCC5)cc4)n[nH]c3cc2F)cn1 [Compound 69, 6-Fluoro-5-(1-methyl-1H-pyrazol-4-yl)-N-(4-(pyrrolidin-1-ylmethyl)phenyl)-1H-indazole-3-carboxamide] | 6.72 | 6.48 | 8.70 | 6.51 | 5.88 | 7.70 | – |
| Cn1cc(-c2cc(F)c3[nH]nc(C(=O)N[C@@H]4CCCC[C@H]4F)c3c2)cn1 [Compound 11, 7-Fluoro-N-((1R,2R)-2-fluorocyclohexyl)-5-(1-methyl-1H-pyrazol-4-yl)-1H-indazole-3-carboxamide] | 5.71 | < 5.00 | 6.70 | < 5.00 | 5.48 | 7.70 | – |
| CC(C)CN1CC[C@H](NC(=O)c2n[nH]c3ccc(-c4cnn(C)c4)cc23)[C@@H](F)C1 [Compound 33, N-((3 S,4S)-3-Fluoro-1-isobutylpiperidin-4-yl)-5-(1-methyl-1H-pyrazol-4-yl)-1H-indazole-3-carboxamide] | < 5.00 | 7.37 | 7.62 | 6.57 | 5.50 | 7.44 | – |
| Cc1ncc(-c2ccc3[nH]nc(C(=O)NC4CCC(F)(F)CC4)c3c2)n1C [Compound 22, N-(4,4-Difluorocyclohexyl)-5-(1,2-dimethyl-1H-imidazol-5-yl)-1H-indazole-3-carboxamide] | < 5.00 | 5.66 | 7.60 | 5.70 | < 5.00 | 7.21 | 10.2% |
| CN1CCN(c2ccc(NC(=O)c3n[nH]c4cc(F)c(-c5cnn(C)c5)cc34)cc2)CC1 [Compound 66, 6-Fluoro-5-(1-methyl-1H-pyrazol-4-yl)-N-(4-(4-methylpiperazin-1-yl)phenyl)-1H-indazole-3-carboxamide] | 6.12 | 6.19 | 8.70 | 6.02 | 5.89 | 7.19 | – |
| CN1CCC(Oc2ccc(NC(=O)c3n[nH]c4cc(F)c(-c5cnn(C)c5)cc34)cc2)CC1 [Compound 79, 6-Fluoro-5-(1-methyl-1H-pyrazol-4-yl)-N-(4-((1-methylpiperidin-4-yl)oxy)phenyl)-1H-indazole-3-carboxamide] | 6.85 | 7.21 | 8.70 | 6.58 | 5.76 | 7.22 | – |
| Cn1cc(-c2ccc3[nH]nc(C(=O)Nc4ccc(CN5CCCC5)cc4)c3c2)cn1 [Compound 68, 5-(1-Methyl-1H-pyrazol-4-yl)-N-(4-(pyrrolidin-1-ylmethyl)phenyl)-1H-indazole-3-carboxamide] | 6.44 | 7.13 | 9.00 | 6.58 | < 5.00 | 8.22 | – |
| Cc1ncc(NC(=O)c2n[nH]c3ccc(-c4cnn(C5CCN(C)CC5)c4)cc23)s1 [Compound 98, 5-(1-(1-Methylpiperidin-4-yl)-1H-pyrazol-4-yl)-N-(2-methylthiazol-5-yl)-1H-indazole-3-carboxamide] | 6.94 | 6.92 | 8.70 | 7.00 | 5.95 | 6.68 | – |
| CN1CCC(c2ccc(NC(=O)c3n[nH]c4cc(F)c(-c5cnn(C)c5)cc34)cc2)CC1 [Compound 65, 6-Fluoro-5-(1-methyl-1H-pyrazol-4-yl)-N-(4-(1-methylpiperidin-4-yl)phenyl)-1H-indazole-3-carboxamide] | 5.96 | 6.21 | 8.40 | 6.09 | 5.50 | 7.36 | – |
| O=C(Nc1ccc(Cl)cc1)c1n[nH]c2cc(F)c(-c3cnn(C4CCNCC4)c3)cc12 [Compound 50, N-(4-Chlorophenyl)-6-fluoro-5-(1-(piperidin-4-yl)-1H-pyrazol-4-yl)-1H-indazole-3-carboxamide] | 6.19 | 5.95 | 7.47 | 5.92 | 5.22 | 6.32 | – |
| O=C(Nc1ccc(OC(F)F)nc1)c1n[nH]c2ccc(-c3cnn(CCN4CCOCC4)c3)cc12 [Compound 90, N-(6-(Difluoromethoxy)pyridin-3-yl)-5-(1-(2-morpholinoethyl)-1H-pyrazol-4-yl)-1H-indazole-3-carboxamide] | 5.13 | < 5.00 | 6.48 | 5.67 | < 5.00 | 6.39 | 37% |
| Cn1cc(-c2cc(F)c3[nH]nc(C(=O)NCCC(F)(F)F)c3c2)cn1 [Compound 6, 7-Fluoro-5-(1-methyl-1H-pyrazol-4-yl)-N-(3,3,3-trifluoropropyl)-1H-indazole-3-carboxamide] | 6.13 | 6.83 | 6.68 | 6.49 | < 5.00 | 7.82 | 37.8% |
| O=C(Nc1ccc(OC(F)F)cc1)c1n[nH]c2ccc(-c3cnn(C4CNC4)c3)cc12 [Compound 54, 5-(1-(Azetidin-3-yl)-1H-pyrazol-4-yl)-N-(4-(difluoromethoxy)phenyl)-1H-indazole-3-carboxamide] | < 5.00 | 5.54 | 6.61 | 5.36 | < 5.00 | 5.68 | 9.7% |
| Cn1cc(-c2cc3c(C(=O)NC4CCC(F)(F)CC4)n[nH]c3cc2F)cn1 [Compound 15, N-(4,4-Difluorocyclohexyl)-6-fluoro-5-(1-methyl-1H-pyrazol-4-yl)-1H-indazole-3-carboxamide] | 5.59 | 5.48 | 7.44 | < 5.00 | 5.45 | 7.24 | – |
| Cn1cc(-c2cc3c(C(=O)Nc4ccc(CN5CCC(F)CC5)cc4)n[nH]c3cc2F)cn1 [Compound 75, 6-Fluoro-N-(4-((4-fluoropiperidin-1-yl)methyl)phenyl)-5-(1-methyl-1H-pyrazol-4-yl)-1H-indazole-3-carboxamide] | 5.96 | 6.80 | 8.52 | 6.27 | 5.94 | 7.41 | – |
| CC(C)NC(=O)c1n[nH]c2ccc(-c3cnn(C4CCNCC4)c3)cc12 [Compound 7, N-Isopropyl-5-(1-(piperidin-4-yl)-1H-pyrazol-4-yl)-1H-indazole-3-carboxamide] | 5.25 | < 5.00 | 7.26 | 5.59 | 5.70 | 6.59 | – |
